Test results: patent US20180055816A1, “PYRANONAPHTHOQUINONE COMPOUNDS AND METHODS OF USE THEREOF” (University of Kentucky Research Foundation, priority 2016, published 2018)

System: 4E-BP1 phosphorylation
Assay: 4E-BP1 phosphorylation in MDA-MB-231 breast cancer cells (Western blot)
Format: cell-based, human
Conditions: MDA-MB-231 cells, 2 μM, 12 hours
Procedure: Cells were treated with 100 nM rapamycin, 0.5 μM AZD8055, 2 μM FB, 2 μM UCF76-A or DMSO control for 12 hours followed by Western blot analysis for the indicated proteins.
Cells were lysed in NP-40 lysis buffer (50 mM Tris-HCl, pH 7.5, 150 mM NaCl, 1 mM EDTA, 1% NP-40, 10% glycerol, protease and phosphatase inhibitor cocktail). Western blot analysis were performed using equivalent total protein loadings as described previously. For immunoprecipitation, the cell lysates were incubated with the indicated antibody overnight followed by incubation with a 50% slurry of protein G sepharose beads for 3 h at 4° C. The beads were washed three times with the lysis buffer, and the immunoprecipitated protein complexes were resuspended in 2× Laemmli sample buffer followed by western blot analysis.

CCCC1OC2CC(=O)OC2C2=C1C(=O)c1c(O)cccc1C2=O (stereo not shown) [FB, frenolicin B]
inhibition of 4E-BP1 phosphorylation: selectively inhibit
